Assay results taken from the supplement of paper PMC8671470.
± gives the standard deviation of the averaged measurements.

Legend:
Conditions in all cases: 72 h
Mono-Mac-6 = tested on: Mono-Mac-6
How it was run: (§1)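 Seeded in RPMI 1640 at densities within the linear growth range, fifteen myeloid leukaemia cell lines were dispensed into 384-well plates with acoustically pre-printed compounds spanning five tenfold doses from 1 to 10,000 nM, in duplicate. The plates were kept for 72 h at 37 °C in 5% CO2 before luminescent ATP viability was measured and normalised to vehicle and to a positive control at 10 µM. Curves were fitted with a four-parameter log-logistic model. The IC50 was taken from those curves.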

KU-812 [1] = tested on: KU-812
How it was run: as §1

HEL [2] = tested on: HEL
How it was run: as §1

MOLM-13 [3] = tested on: MOLM-13
How it was run: as §1

K-562 [4] = tested on: K-562
How it was run: as §1

KG-1 [5] = tested on: KG-1
How it was run: as §1

THP-1 [6] = tested on: THP-1
How it was run: as §1

KCL-22 [7] = tested on: KCL-22
How it was run: as §1

SHI-1 [8] = tested on: SHI-1
How it was run: as §1

HL-60 [9] = tested on: HL-60
How it was run: as §1

LAMA-84 = tested on: LAMA-84
How it was run: as §1

MV4-11 [10] = tested on: MV4-11
How it was run: as §1

BV-173 = tested on: BV-173
How it was run: as §1

NOMO-1 [11] = tested on: NOMO-1
How it was run: as §1

ML-2 [12] = tested on: ML-2
How it was run: as §1

KU-812 [13] = experiment: cell viability (% survival relative to DMSO control, bortezomib = 0%); higher = less cytotoxic
How it was run: (§2)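 Percent survival figures are means of duplicate wells. They were obtained by CellTiter-Glo luminescence after 10 AML and 5 CML cell lines spent 72 h at 37 °C with 5% CO2 in 384-well plates with compounds at 1, 10, 100, 1000 or 10000 nM. Vehicle was set to 100% and a 10 µM positive control to 0%.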

HEL [14] = experiment: as above
How it was run: as §2

MOLM-13 [15] = experiment: as above
How it was run: as §2

K-562 [16] = experiment: as above
How it was run: as §2

KG-1 [17] = experiment: as above
How it was run: as §2

THP-1 [18] = experiment: as above
How it was run: as §2

KCL-22 [19] = experiment: as above
How it was run: as §2

SHI-1 [20] = experiment: as above
How it was run: as §2

HL-60 [21] = experiment: as above
How it was run: as §2

MV4-11 [22] = experiment: as above
How it was run: as §2

NOMO-1 [23] = experiment: as above
How it was run: as §2

ML-2 [24] = experiment: as above
How it was run: as §2

HL-60 [25] = experiment: cell viability (% survival relative to DMSO control); higher = less cytotoxic
How it was run: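 In 384-well plates, the full library was rescreened in duplicate on HL-60 cells in RPMI 1640 with 10% FBS, at 1–10,000 nM in five tenfold concentrations, for 72 h at 37 °C, 5% CO2. Each run also held DMSO or 100 nM of one of three metabolic inhibitors. Viability was measured by CellTiter-Glo and normalised to DMSO wells and to wells with proteasome inhibitor, present at 10 μM. Any area under the curve comes from four-parameter log-logistic fitting with drc and PharmacoGx.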

For `CCCCCN(C)CCC(O)(P(=O)(O)O)P(=O)(O)O` [Ibandronate], the “IC50 (cell viability)” value (Mono-Mac-6) was > 10 µM, the “IC50 (cell viability)” value (KU-812 [1]) was > 10 µM and the “IC50 (cell viability)” value (HEL [2]) was > 10 µM. The “IC50 (cell viability)” value (MOLM-13 [3]) was > 10 µM, the “IC50 (cell viability)” value (K-562 [4]) was > 10 µM and the “IC50 (cell viability)” value (KG-1 [5]) was > 10 µM. For the same compound, the “IC50 (cell viability)” value (THP-1 [6]) was > 10 µM, the “IC50 (cell viability)” value (KCL-22 [7]) was > 10 µM and the “IC50 (cell viability)” value (SHI-1 [8]) was > 10 µM. The “IC50 (cell viability)” value (HL-60 [9]) was > 10 µM, the “IC50 (cell viability)” value (LAMA-84) was > 10 µM and the “IC50 (cell viability)” value (MV4-11 [10]) was > 10 µM. The “IC50 (cell viability)” value (BV-173) was > 10 µM, the “IC50 (cell viability)” value (NOMO-1 [11]) was > 10 µM and the “IC50 (cell viability)” value (ML-2 [12]) was > 10 µM. The cell viability (KU-812 [13]; 1 nM) was 88.2%, the cell viability (KU-812 [13]; 10 nM) was 90.9% and the cell viability (KU-812 [13]; 100 nM) was 89.9%. The cell viability (KU-812 [13]; 1000 nM) was 110%, the cell viability (KU-812 [13]; 10000 nM) was 105% and the cell viability (HEL [14]; 1 nM) was 107%. The cell viability (HEL [14]; 10 nM) was 105%, the cell viability (HEL [14]; 100 nM) was 109% and the cell viability (HEL [14]; 1000 nM) was 95.5%. The cell viability (HEL [14]; 10000 nM) was 114%, the cell viability (MOLM-13 [15]; 1 nM) was 84.4% and the cell viability (MOLM-13 [15]; 10 nM) was 110%. It also gave a cell viability (MOLM-13 [15]; 100 nM) of 111%, a cell viability (MOLM-13 [15]; 1000 nM) of 100% and a cell viability (MOLM-13 [15]; 10000 nM) of 117%. The cell viability (K-562 [16]; 1 nM) was 113%, the cell viability (K-562 [16]; 10 nM) was 92% and the cell viability (K-562 [16]; 100 nM) was 81.9%. For the same compound, the cell viability (K-562 [16]; 1000 nM) was 102%, the cell viability (K-562 [16]; 10000 nM) was 101% and the cell viability (KG-1 [17]; 1 nM) was 103%. The cell viability (KG-1 [17]; 10 nM) was 108%, the cell viability (KG-1 [17]; 100 nM) was 96.5% and the cell viability (KG-1 [17]; 1000 nM) was 115%. It also gave a cell viability (KG-1 [17]; 10000 nM) of 111%, a cell viability (THP-1 [18]; 1 nM) of 94.7% and a cell viability (THP-1 [18]; 10 nM) of 102%. The cell viability (THP-1 [18]; 100 nM) was 103%, the cell viability (THP-1 [18]; 1000 nM) was 113% and the cell viability (THP-1 [18]; 10000 nM) was 115%. For the same compound, the cell viability (KCL-22 [19]; 1 nM) was 107%, the cell viability (KCL-22 [19]; 10 nM) was 105% and the cell viability (KCL-22 [19]; 100 nM) was 95.1%. The cell viability (KCL-22 [19]; 1000 nM) was 99.8%, the cell viability (KCL-22 [19]; 10000 nM) was 112% and the cell viability (SHI-1 [20]; 1 nM) was 108%. It also gave a cell viability (SHI-1 [20]; 10 nM) of 108%, a cell viability (SHI-1 [20]; 100 nM) of 103% and a cell viability (SHI-1 [20]; 1000 nM) of 98%. It also gave a cell viability (SHI-1 [20]; 10000 nM) of 107%, a cell viability (HL-60 [21]; 1 nM) of 92.4% and a cell viability (HL-60 [21]; 10 nM) of 111%. For the same compound, the cell viability (HL-60 [21]; 100 nM) was 103%, the cell viability (HL-60 [21]; 1000 nM) was 90.5% and the cell viability (HL-60 [21]; 10000 nM) was 142%. For the same compound, the cell viability (MV4-11 [22]; 1 nM) was 95%, the cell viability (MV4-11 [22]; 10 nM) was 90.5% and the cell viability (MV4-11 [22]; 100 nM) was 104%. It also gave a cell viability (MV4-11 [22]; 1000 nM) of 86.6%, a cell viability (MV4-11 [22]; 10000 nM) of 116% and a cell viability (NOMO-1 [23]; 1 nM) of 99.6%. For the same compound, the cell viability (NOMO-1 [23]; 10 nM) was 99.3%, the cell viability (NOMO-1 [23]; 100 nM) was 94.4% and the cell viability (NOMO-1 [23]; 1000 nM) was 109%. The cell viability (NOMO-1 [23]; 10000 nM) was 112%, the cell viability (ML-2 [24]; 1 nM) was 94% and the cell viability (ML-2 [24]; 10 nM) was 110%. It also gave a cell viability (ML-2 [24]; 100 nM) of 97.2%, a cell viability (ML-2 [24]; 1000 nM) of 114% and a cell viability (ML-2 [24]; 10000 nM) of 112%. For the same compound, the cell viability (HL-60 [25]; 0.001 µM, co-treatment: AZD3965 100 nM) was 101 ± 4%, the cell viability (HL-60 [25]; 0.001 µM, co-treatment: DMSO vehicle) was 101 ± 3% and the cell viability (HL-60 [25]; 0.001 µM, co-treatment: GSK2194069 100 nM) was 98.3 ± 3.5%. The cell viability (HL-60 [25]; 0.001 µM, co-treatment: pictilisib 100 nM) was 103 ± 12%, the cell viability (HL-60 [25]; 0.01 µM, co-treatment: AZD3965 100 nM) was 90.6 ± 11% and the cell viability (HL-60 [25]; 0.01 µM, co-treatment: DMSO vehicle) was 99.4 ± 3.6%. For the same compound, the cell viability (HL-60 [25]; 0.01 µM, co-treatment: GSK2194069 100 nM) was 98.1 ± 3.2%, the cell viability (HL-60 [25]; 0.01 µM, co-treatment: pictilisib 100 nM) was 87.2 ± 3.4% and the cell viability (HL-60 [25]; 0.1 µM, co-treatment: AZD3965 100 nM) was 108.2 ± 0.12%. It also gave a cell viability (HL-60 [25]; 0.1 µM, co-treatment: DMSO vehicle) of 104 ± 2.7%, a cell viability (HL-60 [25]; 0.1 µM, co-treatment: GSK2194069 100 nM) of 104 ± 2.5% and a cell viability (HL-60 [25]; 0.1 µM, co-treatment: pictilisib 100 nM) of 101 ± 3.7%. The cell viability (HL-60 [25]; 1 µM, co-treatment: AZD3965 100 nM) was 94.15 ± 0.69%, the cell viability (HL-60 [25]; 1 µM, co-treatment: DMSO vehicle) was 99.1 ± 3.3% and the cell viability (HL-60 [25]; 1 µM, co-treatment: GSK2194069 100 nM) was 94.4 ± 2.5%. The cell viability (HL-60 [25]; 1 µM, co-treatment: pictilisib 100 nM) was 94.3 ± 2%, the cell viability (HL-60 [25]; 10 µM, co-treatment: AZD3965 100 nM) was 99.33 ± 0.86% and the cell viability (HL-60 [25]; 10 µM, co-treatment: DMSO vehicle) was 106 ± 1.4%. For the same compound, the cell viability (HL-60 [25]; 10 µM, co-treatment: GSK2194069 100 nM) was 99 ± 1.6% and the cell viability (HL-60 [25]; 10 µM, co-treatment: pictilisib 100 nM) was 99.9 ± 3.8%.
